Measured values: publication PMC10325911 (2023)

Legend:
[1] = tested on: c-MYC Pu22 (DNA, G4) TGAGGGTGGGTAGGGTGGGTAA; experiment: CD melting; conditions: K+ 5 mM; Tris 10 mM pH 7.2, DBI 10 μM, oligonucleotide 2 μM, DMSO 2%
[2] = tested on: sc ds-DNA (DNA, duplex) CAATCGGATCGAATTCGATCCGATTG; experiment: CD melting; conditions: K+ 5 mM; Tris 10 mM pH 7.2, DBI 10 μM, oligonucleotide 2 μM, DMSO 2%
[3] = tested on: 4G3U3 (RNA, G4) GGGUUUGGGUUUGGGUUUGGG; experiment: CD melting; conditions: K+ 5 mM; Tris 10 mM pH 7.2, DBI 10 μM, oligonucleotide 2 μM, DMSO 2%
[4] = tested on: c-MYC Pu24T (DNA, G4) TGAGGGTGGTGAGGGTGGGGAAGG; experiment: CD melting; conditions: K+ 5 mM; Tris 10 mM pH 7.2, DBI 10 μM, oligonucleotide 2 μM, DMSO 2%
[5] = tested on: Tel-22 (DNA, G4) AGGGTTAGGGTTAGGGTTAGGG; experiment: CD melting; conditions: K+ 5 mM; Tris 10 mM pH 7.2, DBI 10 μM, oligonucleotide 2 μM, DMSO 2%
[6] = tested on: Bom17 (DNA, G4) GGTTAGGTTAGGTTAGG; experiment: CD melting; conditions: K+ 5 mM; Tris 10 mM pH 7.2, DBI 10 μM, oligonucleotide 2 μM, DMSO 2%
[7] = tested on: ds-DNA HIF-1α (DNA, duplex) GCGCGGGGAGGGGAGAGGGGGCGGGAGCGCG/CGCGCTCCCGCCCCCTCTCCCCTCCCCGCGC; experiment: CD melting; conditions: K+ 5 mM; Tris 10 mM pH 7.2, DBI 10 μM, oligonucleotide 2 μM, DMSO 2%
[8] = tested on: HIF-1α (DNA, G4) GCGCGGGGAGGGGAGAGGGGGCGGGAGCGCG; experiment: fluorescence polarization titration; conditions: K+ 100 mM; Tris 50 mM pH 7.2, DBI 1 μM, DMSO 1%, DNA 0-10 μM
[9] = tested on: c-MYC Pu22 (DNA, G4) TGAGGGTGGGTAGGGTGGGTAA; experiment: fluorescence polarization titration; conditions: K+ 100 mM; Tris 50 mM pH 7.2, DBI 1 μM, DMSO 1%, DNA 0-10 μM
[10] = tested on: mut HIF-1α (DNA, single strand) GCGCGGCGAGCGGAGAGGGCGCGCGAGCGCG; experiment: fluorescence polarization titration; conditions: K+ 100 mM; Tris 50 mM pH 7.2, DBI 1 μM, DMSO 1%, DNA up to 10 μM
[11] = tested on: C-rich HIF-1α (DNA, single strand) CGCGCTCCCGCCCCCTCTCCCCTCCCCGCGC; experiment: fluorescence polarization titration; conditions: K+ 100 mM; Tris 50 mM pH 7.2, DBI 1 μM, DMSO 1%, DNA up to 10 μM
[12] = tested on: sc ds-DNA (DNA, duplex) CAATCGGATCGAATTCGATCCGATTG; experiment: fluorescence polarization titration; conditions: K+ 100 mM; Tris 50 mM pH 7.2, DBI 1 μM, DMSO 1%, DNA up to 10 μM
[13] = tested on: 4G3U3 (RNA, G4) GGGUUUGGGUUUGGGUUUGGG; experiment: fluorescence polarization titration; conditions: no or very weak binding response, group statement for all four RNAs
[14] = tested on: TERRA (RNA, G4) UUAGGGUUAGGGUUAGGGUUAGGG; experiment: fluorescence polarization titration; conditions: no or very weak binding response, group statement for all four RNAs
[15] = tested on: FMR1 (RNA, G4) GGAGGGGGAGGAAGAGGACAAGGAGGAAGAGG; experiment: fluorescence polarization titration; conditions: no or very weak binding response, group statement for all four RNAs
[16] = tested on: sc ds-RNA (RNA, duplex) CAAUCGGAUCGAAUUCGAUCCGAUUG; experiment: fluorescence polarization titration; conditions: no or very weak binding response, group statement for all four RNAs

ΔTm [1]: 7.3 °C | ΔTm [2]: -1.5 °C | ΔTm [3]: 0.6 °C | ΔTm [4]: 3.3 °C | ΔTm [5]: -1.3 °C | ΔTm [6]: -0.1 °C | ΔTm [7]: 2 °C | Ka [8]: 4.6 × 10^5 ± 0.5 M^−1 | Ka [9]: 4.5 × 10^5 ± 1.1 M^−1 | binding [10]: no | binding [11]: no | binding [12]: no | binding [13]: weak | binding [14]: weak | binding [15]: weak | binding [16]: weak
SMILES: CCC(CC)n1c(=O)c2ccc3sc4ccc5ccccc5c4c4ccc(c1=O)c2c34
